Data reported in patent publication US20140073801A1, “PYRROLIDINE DERIVATIVES AS SELECTIVE GLYCOSIDASE INHIBITORS AND USES THEREOF” (Summit Corporation Plc, priority 2011, published 2014).

How the values were obtained:
Format in all cases: biochemical
human OGA = target: T1, human OGA (Homo sapiens, UniProt O60502); experiment: Determination of IC50 values for inhibition of human OGA
T1 construct: made in house
T1 sequence (O60502 1-916): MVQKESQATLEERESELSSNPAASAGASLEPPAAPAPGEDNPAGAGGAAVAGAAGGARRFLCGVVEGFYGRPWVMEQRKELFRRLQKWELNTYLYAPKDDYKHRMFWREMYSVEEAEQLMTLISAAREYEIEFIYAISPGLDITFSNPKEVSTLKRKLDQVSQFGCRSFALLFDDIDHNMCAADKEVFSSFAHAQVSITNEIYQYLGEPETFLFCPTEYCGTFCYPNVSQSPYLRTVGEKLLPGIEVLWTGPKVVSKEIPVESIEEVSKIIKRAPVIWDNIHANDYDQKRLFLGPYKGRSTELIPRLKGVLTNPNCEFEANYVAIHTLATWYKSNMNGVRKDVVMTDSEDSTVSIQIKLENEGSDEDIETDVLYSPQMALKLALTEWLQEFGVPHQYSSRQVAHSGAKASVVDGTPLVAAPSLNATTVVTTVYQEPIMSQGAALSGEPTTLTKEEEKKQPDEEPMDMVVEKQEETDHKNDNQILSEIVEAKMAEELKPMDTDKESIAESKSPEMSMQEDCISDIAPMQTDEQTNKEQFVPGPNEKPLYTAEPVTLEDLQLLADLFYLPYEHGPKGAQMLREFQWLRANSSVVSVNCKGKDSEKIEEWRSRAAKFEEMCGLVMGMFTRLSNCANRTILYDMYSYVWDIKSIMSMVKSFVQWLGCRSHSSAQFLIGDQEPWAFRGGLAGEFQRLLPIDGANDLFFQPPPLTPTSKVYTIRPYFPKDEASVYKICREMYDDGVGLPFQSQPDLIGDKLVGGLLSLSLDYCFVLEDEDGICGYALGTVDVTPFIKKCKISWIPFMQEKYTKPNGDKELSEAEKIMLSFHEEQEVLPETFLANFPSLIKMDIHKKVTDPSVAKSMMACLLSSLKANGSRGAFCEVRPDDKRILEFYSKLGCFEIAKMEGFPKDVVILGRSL
Experimental: Inhibitors identified from the screen described in Example 1 were evaluated for IC50 using a procedure adapted from Biochem. J. 2009, 420, 221-227. IC50 determination was carried out using a range of inhibitor concentrations from 300 μM to 0.003 μM or 100 μM to 0.001 μM. IC50 values were calculated using XLFit 4.

[1] = system: human β-hexosaminidase [human placenta] (HexA/B); experiment: Determination of IC50 values for inhibition of human β-hexosaminidase; details: ratio
Experimental: (§1) Inhibitors identified from the screen described in Example 1 were evaluated for IC50 against human β-hexosaminidase [human placenta, Sigma-Aldrich] using a range of inhibitor concentrations from 300 μM to 0.003 μM or 100 μM to 0.001 μM and the following reaction conditions:
(§2) Reactions were carried out at room temperature for thirty minutes and then quenched through the addition of 150 μl 0.5M Na2CO3. Fluorescence readings were taken at excitation wavelength 360 nm and emission wavelength 450 nm. IC50 values were calculated using XLFit 4. The selectivity ratio for inhibition of human O-GlcNAcase over human β-hexosaminidase is defined here as:
(§3) IC50(human β-hexosaminidase)/IC50(Human OGA)

[2] = target: T2, human β-hexosaminidase [human placenta] (HexA/B); experiment: as above; details: human β-hexosaminidase, human placenta; room temperature, thirty minutes
T2 construct: other: human β-hexosaminidase, human placenta; room temperature, thirty minutes
Experimental: as §1, §2, §3

IC50 (human OGA) [µM] | Selectivity: IC50(human β-hexosaminidase)/IC50(Human OGA) [1] | IC50 [2] [µM] | SMILES
39.2 | 0.11 | 4.26 | CNC(=O)C[C@H]1[C@@H](O)[C@H](O)[C@H](CO)N1CCCc1ccccc1 [Compound A057, 2-((2S,3R,4R,5S)-3,4-dihydroxy-5-(hydroxymethyl)-1-(3-phenylpropyl)pyrrolidin-2-yl)-N-methylacetamide]
0.926 | 0.44 | 0.405 | CCCCCCN1[C@H](CO)[C@@H](O)[C@H](O)[C@@H]1CC(=O)NC [Compound A047, 2-((2S,3R,4R,5R)-1-hexyl-3,4-dihydroxy-5-(hydroxymethyl)pyrrolidin-2-yl)-N-methylacetamide]
6.98 | >42.98 | > 300 | CCCCCCN1[C@H](CO)[C@@H](O)[C@H](O)[C@@H]1CC(=O)NCC [Compound A054, N-ethyl-2-((2S,3R,4R,5R)-1-hexyl-3,4-dihydroxy-5-(hydroxymethyl)pyrrolidin-2-yl)acetamide]
0.0237 | 0.42 | 0.0099 | CCCCCCN1[C@H](CO)[C@@H](O)[C@H](O)[C@H]1CC(=O)NC [Compound A046, 2-((2R,3R,4R,5R)-1-hexyl-3,4-dihydroxy-5-(hydroxymethyl)pyrrolidin-2-yl)-N-methylacetamide]
0.586 | 4.71 | 2.76 | CNC(=O)C[C@@H]1N[C@H](CO)[C@@H](O)[C@@H]1O [Compound A045, 2-((2S,3R,4R,5R)-3,4-dihydroxy-5-(hydroxymethyl)pyrrolidin-2-yl)-N-methylacetamide]
1.06 | >283 | > 300 | CCCCCCN1[C@H](CC(=O)NC2CC2)[C@H](O)[C@H](O)[C@H]1CO [Compound A049, N-cyclopropyl-2-((2R,3S,4R,5R)-1-hexyl-3,4-dihydroxy-5-(hydroxymethyl)pyrrolidin-2-yl)acetamide]
0.0075 | 22133 | 166 | CCNC(=O)C[C@@H]1[C@@H](O)[C@H](O)[C@@H](CO)N1CCCc1ccc(S(=O)(=O)NCC)cc1 [Compound A070, N-ethyl-2-((2R,3R,4R,5R)-1-(3-(4-(N-ethylsulfamoyl)phenyl)propyl)-3,4-dihydroxy-5-(hydroxymethyl)pyrrolidin-2-yl)acetamide]
0.007 | 8342 | 58.4 | CNC(=O)C[C@@H]1[C@H](O)[C@H](O)[C@@H](CO)N1CCCNC(=O)OC(C)(C)C [Compound A065, tert-butyl (3-((2R,3R,4S,5R)-3,4-dihydroxy-2-(hydroxymethyl)-5-(2-(methylamino)-2-oxoethyl)pyrrolidin-1-yl)propyl)carbamate]

Continued, molecule first:

SMILES | IC50 (human OGA) [µM] | Selectivity: IC50(human β-hexosaminidase)/IC50(Human OGA) [1] | IC50 [2] [µM]
CCNC(=O)C[C@H]1N[C@H](CO)[C@@H](O)[C@H]1O [Compound A006, 2-((2R,3S,4R,5R)-3,4-dihydroxy-5-(hydroxymethyl)pyrrolidin-2-yl)-N-ethylacetamide] | 1.25 | >234 | > 300
CCCCCCN1[C@H](CC(=O)NCC(C)C)[C@H](O)[C@H](O)[C@H]1CO [Compound A027, 2-((2R,3S,4R,5R)-1-hexyl-3,4-dihydroxy-5-(hydroxymethyl)pyrrolidin-2-yl)-N-isobutylacetamide] | 11.6 | >25.95 | > 300
CNC(=O)C[C@@H]1[C@H](O)[C@H](O)[C@@H](CO)N1CCC1CCCCC1 [Compound A041, 2-((2R,3S,4R,5R)-1-(2-cyclohexylethyl)-3,4-dihydroxy-5-(hydroxymethyl)pyrrolidin-2-yl)-N-methylacetamide] | 0.014 | 8142 | 114
CCCCCCN1[C@H](CC(=O)NCCO)[C@H](O)[C@H](O)[C@H]1CO [Compound A028, 2-((2R,3S,4R,5R)-1-hexyl-3,4-dihydroxy-5-(hydroxymethyl)pyrrolidin-2-yl)-N-(2-hydroxyethyl)acetamide] | 215 | >1.39 | ≥ 300
CNC(=O)C[C@@H]1[C@H](O)[C@H](O)[C@@H](CO)N1CCOc1ccccc1 [Compound A037, 2-((2R,3S,4R,5R)-3,4-dihydroxy-5-(hydroxymethyl)-1-(2-phenoxyethyl)pyrrolidin-2-yl)-N-methylacetamide] | 0.228 | >1315 | > 300
CCCCCCN1[C@H](CNC(C)=O)[C@H](O)[C@H](O)[C@H]1CO [Compound A035, N-(((2R,3S,4R,5R)-1-hexyl-3,4-dihydroxy-5-(hydroxymethyl)pyrrolidin-2-yl)methyl)acetamide] | 3.9 | >76.92 | > 300
C=CCNC(=O)C[C@@H]1[C@H](O)[C@H](O)[C@@H](CO)N1CCCCCC [Compound A039, N-allyl-2-((2R,3S,4R,5R)-1-hexyl-3,4-dihydroxy-5-(hydroxymethyl)pyrrolidin-2-yl)acetamide] | 1.59 | >188.68 | > 300
CC(C)CNC(=O)C[C@H]1N[C@H](CO)[C@@H](O)[C@H]1O [Compound A025, 2-((2R,3S,4R,5R)-3,4-dihydroxy-5-(hydroxymethyl)pyrrolidin-2-yl)-N-isobutylacetamide] | 129 | >2.3 | > 300
CCCCCCN1[C@H](CC(=O)NC)[C@H](O)[C@H](O)[C@@H]1CO [Compound A036, 2-((2R,3S,4R,5S)-1-hexyl-3,4-dihydroxy-5-(hydroxymethyl)pyrrolidin-2-yl)-N-methylacetamide] | 136 | 0.54 | 73
CCCCCCN1[C@H](CC(=O)NCCC)[C@H](O)[C@H](O)[C@H]1CO [Compound A023, 2-((2R,3S,4R,5R)-1-hexyl-3,4-dihydroxy-5-(hydroxymethyl)pyrrolidin-2-yl)-N-propylacetamide] | 0.048 | >6211 | > 300
CCCCN1[C@H](CC(=O)NC)[C@H](O)[C@H](O)[C@H]1CO [Compound A017, 2-((2R,3S,4R,5R)-1-butyl-3,4-dihydroxy-5-(hydroxymethyl)pyrrolidin-2-yl)-N-methylacetamide] | 0.056 | 3500 | 196
CC(=O)NC[C@@H]1[C@H](O)[C@H](O)[C@@H](CO)N1CCCc1ccccc1 [Compound A038, N-(((2R,3S,4R,5R)-3,4-dihydroxy-5-(hydroxymethyl)-1-(3-phenylpropyl)pyrrolidin-2-yl)methyl)acetamide] | 1.3 | >230 | > 300
CNC(=O)[C@H]1NC[C@@H](O)[C@@H]1O [Compound A043, (2S,3R,4R)-3,4-dihydroxy-N-methylpyrrolidine-2-carboxamide] | 10.2 | 1.37 | 14
CNC(=O)C[C@@H]1[C@H](O)[C@H](O)[C@@H](CO)N1CCCCCCCCCO [Compound A009, 2-((2R,3S,4R,5R)-3,4-dihydroxy-5-(hydroxymethyl)-1-(9-hydroxynonyl)pyrrolidin-2-yl)-N-methylacetamide] | 0.036 | 5472 | 197
CCCNC(=O)C[C@@H]1[C@H](O)[C@H](O)[C@@H](CO)N1CCCCCCCCCO [Compound A005, 2-((2R,3S,4R,5R)-3,4-dihydroxy-5-(hydroxymethyl)-1-(9-hydroxynonyl)pyrrolidin-2-yl)-N-propylacetamide] | 0.144 | >2142 | > 300
